Earlier results as cited in patent US12599598B2, “Osmotic dosage forms comprising deutetrabenazine and methods of use thereof” (Auspex Pharmaceuticals, Inc., priority 2020, dated 2026).

Details: in vivo

- half-life of its active metabolites, relative to tetrabenazine: increased half-life
SMILES: [2H]C([2H])([2H])Oc1cc2c(cc1OC([2H])([2H])[2H])[C@H]1CC(=O)[C@H](CC(C)C)CN1CC2 [Deutetrabenazine, (RR,SS)-1,3,4,6,7,11b-hexahydro-9,10-di(methoxy-d3)-3-(2-methylpropyl)-2H-benzo[a]quinolizin-2-one]
